Laboratory results from publication PMC2409895, “Antitumour efficacy of VEGFR2 tyrosine kinase inhibitor correlates with expression of VEGF and its receptor VEGFR2 in tumour models” (British Journal of Cancer, 2004).

Legend:
HN5 xenograft = assay: HN5 tumour xenograft growth inhibition; format: in vivo, nude mice; conditions: for % Inhibition of tumour growth: vs vehicle
Protocol: (§1) Tumours were initiated by injection of tumour cell suspension subcutaneously in 8–12-week-old nude mice, except PC3 tumours that were grown in SCID mice (Charles River Laboratories, Wilmington, MA, USA). When tumours reached a volume of 100–200 mm^3, mice were randomised into groups of eight prior to treatment with VEGFR kinase inhibitors. Animals were treated with kinase inhibitors (10, 30, or 100 mg kg^−1) or vehicle (0.5% hydroxypropyl methyl cellulose, 0.1% Tween 80 in sterile water), administered once or twice daily by oral gavage for 2–3 weeks (till the mean tumour volume reached 1000–1500 mm^3). Tumour volume was measured twice weekly by calipers, using the formula (length × width × width × 0.5), where length was the longest diameter across the tumour, and width was the corresponding perpendicular. Tumour growth inhibition was calculated by change in the slopes of tumour growth for control and treated tumours. The oral dose of GW654652 producing 50% inhibition of tumour growth (ED50, mg kg^−1) was estimated by a programme that performed a weighted nonlinear regression analysis of data using the equation: y=Vmax(1−(x/(K+x))), where K is equal to ED50. All animal studies were carried out with the appropriate institutional ethical committee approval and they met the standards of both the US federal regulations and those required by the UKCCCR guidelines ([Workman et al, 1998]).

HT29 xenograft = assay: HT29 tumour xenograft growth inhibition; format: in vivo, nude mice; conditions: for % Inhibition of tumour growth: vs vehicle
Protocol: as §1

HCT116 xenograft = assay: HCT116 tumour xenograft growth inhibition; format: in vivo, nude mice; conditions: for % Inhibition of tumour growth: vs vehicle
Protocol: as §1

Protein binding = format: in vitro ADME; conditions: mouse, plasma; used to calculate free Cmax in mice
human VEGFR2 kinase = molecular target: T1, human VEGFR2 kinase (Homo sapiens, UniProt P35968); assay: VEGFR2 kinase assay (HTRF); format: biochemical; conditions: Table 1
T1 construct: GST-fusion protein encoding the catalytic carboxyl-terminus of human VEGFR kinase 1, 2, or 3; made in house; host or cells: baculovirus expression system
Protocol: (§2) Vascular endothelial growth factor receptor kinase assays were carried out in a homogenous time-resolved fluorescence (HTRF) format in 384-well microtitre plates using a purified, baculovirus-expressed GST-fusion protein encoding the catalytic carboxyl-terminus of human VEGFR kinase 1, 2, or 3. Reactions were initiated by the addition of 10 μl of activated VEGFR kinase (1 nM, 0.1 M HEPES pH 7.5, 0.1 mg ml^−1 BSA, and 0.30 mM DTT) to 10 μl of substrate (360 nM biotin-aminohexyl-EEEEYFELVAKKKK-NH2 peptide, 75 μM ATP, 10 mM MgCl2) and 1 μl of small molecule inhibitor at various concentrations. Plates were incubated at room temperature for 60 min, and the reaction was stopped by the addition of 20 μl 100 mM EDTA. Homogenous time-resolved fluorescence reagents (20 μl 15 nM streptavidin-linked allophycocyanin, 1 nM europium-labelled anti-phosphotyrosine antibody in 0.1 M HEPES, pH 7.5, 0.1 mg ml^−1 BSA) were added and plates were incubated for a minimum of 10 min. The fluorescence at 665 nm was measured with a Victor plate reader (Wallac, Shelton, CT, USA) using a time delay of 50 μs. […] Data were fitted with a curve described by: y=((Vmax × x)/(K+x)+Y2), where Vmax is the upper asymptote, Y2 is the Y intercept, and K is the IC50.

Pharmacokinetics in dog = format: in vivo
c-Fms = molecular target: T2, c-Fms (Homo sapiens, UniProt P07333); assay: c-Fms kinase assay (HTRF); format: biochemical
T2 construct: Each kinase assay was conducted using purified recombinant catalytic domain of the enzyme
T2 sequence (P07333 582-910 limits assumed): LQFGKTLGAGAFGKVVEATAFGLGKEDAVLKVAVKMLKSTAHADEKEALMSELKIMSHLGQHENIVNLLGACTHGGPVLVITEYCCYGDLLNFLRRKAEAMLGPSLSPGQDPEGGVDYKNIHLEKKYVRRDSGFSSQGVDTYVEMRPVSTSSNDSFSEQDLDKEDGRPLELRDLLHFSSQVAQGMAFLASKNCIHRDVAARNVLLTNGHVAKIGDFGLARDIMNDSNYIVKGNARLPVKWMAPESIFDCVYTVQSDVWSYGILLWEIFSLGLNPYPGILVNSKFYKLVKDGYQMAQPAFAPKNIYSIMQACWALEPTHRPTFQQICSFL
Protocol: (§3) Inhibition of several other kinases by small molecules was also determined. Each kinase assay was conducted using purified recombinant catalytic domain of the enzyme. The concentration of ATP and kinase-specific biotinylated peptide in each assay was below the apparent Km of the respective substrate. Inhibition of c-Fms, SRC, and Tie-2 was evaluated by an HTRF format and the inhibition of CDK2, CDK4, EGFR, ErbB2, and Eph-B4 was detected by scintillation proximity assay.

[1] = tested on: HUVEC grown in presence of VEGF; assay: VEGF-induced HUVEC proliferation (BrdU incorporation); format: cell-based; conditions: Homo sapiens, VEGF 10 ng ml^−1, 72 h
Protocol: (§4) Effect of kinase inhibitors on cell proliferation was measured using BrdU incorporation method using commercially available kits (Roche Diagnostics, Indianapolis, IN, USA). Briefly, HUVEC were seeded in a medium containing 5% FBS in type 1 Collagen-coated 96-well plates and incubated overnight at 37°C, 5% CO2. The medium was aspirated from the cells, and various concentrations of kinase inhibitors in serum-free medium were added to each well. After 30 min, VEGF (10 ng ml^−1) or bFGF (0.3 ng ml^−1) was added to the wells. Cells were incubated for an additional 72 h and BrdU (10 μM) was added during the last 18–24 h of incubation. Data were fitted with a curve described by the equation, y=Vmax × (1−(x/(K+x))), where K is equal to the IC50.

CDK4 = molecular target: T3, CDK4 (Homo sapiens, UniProt P11802); assay: CDK4 kinase assay (scintillation proximity); format: biochemical
T3 construct: Each kinase assay was conducted using purified recombinant catalytic domain of the enzyme
Protocol: as §3

ErbB2 = molecular target: T4, ErbB2 (Homo sapiens, UniProt P04626); assay: ErbB2 kinase assay (scintillation proximity); format: biochemical
T4 construct: Each kinase assay was conducted using purified recombinant catalytic domain of the enzyme
Protocol: as §3

human VEGFR kinase 1 = molecular target: T5, human VEGFR kinase 1 (Homo sapiens, UniProt P17948); assay: VEGFR1 kinase assay (HTRF); format: biochemical
T5 construct: GST-fusion protein encoding the catalytic carboxyl-terminus of human VEGFR kinase 1, 2, or 3; made in house; host or cells: baculovirus expression system
T5 sequence (P17948 827-1158 limits assumed): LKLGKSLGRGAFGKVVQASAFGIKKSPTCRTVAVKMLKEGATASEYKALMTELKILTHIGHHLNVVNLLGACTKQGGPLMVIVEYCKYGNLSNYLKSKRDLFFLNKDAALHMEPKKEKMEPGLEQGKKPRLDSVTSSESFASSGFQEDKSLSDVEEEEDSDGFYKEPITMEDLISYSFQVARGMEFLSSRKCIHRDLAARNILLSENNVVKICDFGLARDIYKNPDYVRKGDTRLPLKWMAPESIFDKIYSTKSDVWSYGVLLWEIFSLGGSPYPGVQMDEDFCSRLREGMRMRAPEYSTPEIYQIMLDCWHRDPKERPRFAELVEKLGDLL
Protocol: as §2

EGFR = molecular target: T6, EGFR (Homo sapiens, UniProt P00533); assay: EGFR kinase assay (scintillation proximity); format: biochemical
T6 construct: Each kinase assay was conducted using purified recombinant catalytic domain of the enzyme
Protocol: as §3

SRC = molecular target: T7, SRC (Homo sapiens, UniProt P12931); assay: SRC kinase assay (HTRF); format: biochemical
T7 construct: Each kinase assay was conducted using purified recombinant catalytic domain of the enzyme
Protocol: as §3

Tie2 = molecular target: T8, Tie2 (Homo sapiens, UniProt Q02763); assay: Tie-2 kinase assay (HTRF); format: biochemical
T8 construct: Each kinase assay was conducted using purified recombinant catalytic domain of the enzyme
Protocol: as §3

human VEGFR kinase 3 = molecular target: T9, human VEGFR kinase 3 (Homo sapiens, UniProt P35916); assay: VEGFR3 kinase assay (HTRF); format: biochemical
T9 construct: GST-fusion protein encoding the catalytic carboxyl-terminus of human VEGFR kinase 1, 2, or 3; made in house; host or cells: baculovirus expression system
Protocol: as §2

Eph-B4 = molecular target: T10, Eph-B4 (Homo sapiens, UniProt P54760); assay: Eph-B4 kinase assay (scintillation proximity); format: biochemical
T10 construct: Each kinase assay was conducted using purified recombinant catalytic domain of the enzyme
T10 sequence (P54760 615-899 limits assumed): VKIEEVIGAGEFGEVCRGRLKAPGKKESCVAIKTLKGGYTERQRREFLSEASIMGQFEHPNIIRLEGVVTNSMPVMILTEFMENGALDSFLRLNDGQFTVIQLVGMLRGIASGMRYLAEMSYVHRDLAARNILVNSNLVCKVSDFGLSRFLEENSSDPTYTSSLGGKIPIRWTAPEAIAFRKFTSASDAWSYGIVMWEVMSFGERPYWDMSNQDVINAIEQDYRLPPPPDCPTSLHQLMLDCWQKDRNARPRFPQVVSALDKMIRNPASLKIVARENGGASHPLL
Protocol: as §3

CDK2 = molecular target: T11, CDK2 (Homo sapiens, UniProt P24941); assay: CDK2 kinase assay (scintillation proximity); format: biochemical
T11 construct: Each kinase assay was conducted using purified recombinant catalytic domain of the enzyme
Protocol: as §3

[2] = tested on: HUVEC grown in presence of bFGF; assay: bFGF-induced HUVEC proliferation (BrdU incorporation); format: cell-based; conditions: Homo sapiens, bFGF 0.3 ng ml^−1, 72 h
Protocol: as §4

A375P xenograft = assay: A375P tumour xenograft growth inhibition; format: in vivo, nude mice; conditions: for % Inhibition of tumour growth: vs vehicle
Protocol: as §1

PC3 xenograft = assay: PC3 tumour xenograft growth inhibition; format: in vivo, SCID mice; conditions: for % Inhibition of tumour growth: vs vehicle
Protocol: as §1

Pharmacokinetics in mice = format: in vivo, mouse; conditions: for free Cmax: mice, based on 99% protein binding and total plasma concentration
SW620 xenograft = assay: SW620 tumour xenograft growth inhibition; format: in vivo, nude mice; conditions: for % Inhibition of tumour growth: vs vehicle
Protocol: as §1

[3] = ratio of IC50 of the kinase to IC50 vs VEGFR-2

T6 sequence (P00533 712-979 limits assumed, species assumed): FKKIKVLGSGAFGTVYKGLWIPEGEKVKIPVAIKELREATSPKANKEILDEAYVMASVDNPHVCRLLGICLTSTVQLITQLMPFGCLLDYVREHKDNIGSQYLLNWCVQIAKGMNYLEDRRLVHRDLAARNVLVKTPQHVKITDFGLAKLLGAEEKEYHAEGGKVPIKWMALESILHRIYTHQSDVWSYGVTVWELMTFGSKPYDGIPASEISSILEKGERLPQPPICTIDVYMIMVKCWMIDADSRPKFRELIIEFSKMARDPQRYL
T9 sequence (P35916 845-1173 limits assumed): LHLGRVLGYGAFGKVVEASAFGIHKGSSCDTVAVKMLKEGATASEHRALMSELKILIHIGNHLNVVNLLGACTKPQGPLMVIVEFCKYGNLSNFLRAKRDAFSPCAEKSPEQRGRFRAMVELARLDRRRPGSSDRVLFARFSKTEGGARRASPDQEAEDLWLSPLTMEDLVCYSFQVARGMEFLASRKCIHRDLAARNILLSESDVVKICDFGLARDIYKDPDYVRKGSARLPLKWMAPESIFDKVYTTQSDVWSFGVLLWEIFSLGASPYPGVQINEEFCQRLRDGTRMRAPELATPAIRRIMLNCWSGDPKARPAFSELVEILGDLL
T7 sequence (P12931 270-523 limits assumed, species assumed): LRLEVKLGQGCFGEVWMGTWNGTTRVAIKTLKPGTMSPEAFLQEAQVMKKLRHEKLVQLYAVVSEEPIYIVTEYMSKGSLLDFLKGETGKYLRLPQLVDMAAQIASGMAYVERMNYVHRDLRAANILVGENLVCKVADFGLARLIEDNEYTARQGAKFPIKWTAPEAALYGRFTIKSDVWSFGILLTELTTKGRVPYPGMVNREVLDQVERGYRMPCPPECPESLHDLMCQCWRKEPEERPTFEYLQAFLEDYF
T3 sequence (P11802 6-295 limits assumed, species assumed): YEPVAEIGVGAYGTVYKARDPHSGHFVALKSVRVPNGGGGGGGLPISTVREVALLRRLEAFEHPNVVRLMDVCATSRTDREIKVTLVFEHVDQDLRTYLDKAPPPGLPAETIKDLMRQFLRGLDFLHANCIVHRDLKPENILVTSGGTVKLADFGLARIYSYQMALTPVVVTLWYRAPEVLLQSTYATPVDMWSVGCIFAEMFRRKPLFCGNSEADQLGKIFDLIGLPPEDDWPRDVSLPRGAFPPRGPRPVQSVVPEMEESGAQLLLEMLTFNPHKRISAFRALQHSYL
T3 sequence (P24385 whole entry partner, species assumed, the tested form may be a part): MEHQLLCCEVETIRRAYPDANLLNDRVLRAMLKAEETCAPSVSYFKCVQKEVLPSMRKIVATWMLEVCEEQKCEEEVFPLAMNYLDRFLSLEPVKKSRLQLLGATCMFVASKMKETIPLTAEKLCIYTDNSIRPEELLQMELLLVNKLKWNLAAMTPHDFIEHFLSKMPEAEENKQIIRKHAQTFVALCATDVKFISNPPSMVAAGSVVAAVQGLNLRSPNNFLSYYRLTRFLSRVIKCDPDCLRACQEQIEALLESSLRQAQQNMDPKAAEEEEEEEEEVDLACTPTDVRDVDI
T8 sequence (Q02763 824-1096 limits assumed, species assumed): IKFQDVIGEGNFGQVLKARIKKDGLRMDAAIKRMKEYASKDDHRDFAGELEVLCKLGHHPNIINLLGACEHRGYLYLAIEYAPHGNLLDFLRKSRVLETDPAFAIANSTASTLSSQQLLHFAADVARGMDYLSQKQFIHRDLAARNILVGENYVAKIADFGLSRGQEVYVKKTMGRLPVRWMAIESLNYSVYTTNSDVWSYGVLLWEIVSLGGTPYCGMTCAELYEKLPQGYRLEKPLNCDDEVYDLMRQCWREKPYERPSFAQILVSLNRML
T4 sequence (P04626 720-987 limits assumed, species assumed): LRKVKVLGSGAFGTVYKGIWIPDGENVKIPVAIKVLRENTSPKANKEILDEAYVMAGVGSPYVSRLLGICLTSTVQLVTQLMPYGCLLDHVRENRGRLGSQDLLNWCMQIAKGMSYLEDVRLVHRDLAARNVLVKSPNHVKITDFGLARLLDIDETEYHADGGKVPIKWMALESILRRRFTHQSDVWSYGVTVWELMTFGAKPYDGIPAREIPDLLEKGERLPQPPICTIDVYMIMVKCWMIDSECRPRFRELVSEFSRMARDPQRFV
T1 sequence (P35968 834-1162 limits assumed): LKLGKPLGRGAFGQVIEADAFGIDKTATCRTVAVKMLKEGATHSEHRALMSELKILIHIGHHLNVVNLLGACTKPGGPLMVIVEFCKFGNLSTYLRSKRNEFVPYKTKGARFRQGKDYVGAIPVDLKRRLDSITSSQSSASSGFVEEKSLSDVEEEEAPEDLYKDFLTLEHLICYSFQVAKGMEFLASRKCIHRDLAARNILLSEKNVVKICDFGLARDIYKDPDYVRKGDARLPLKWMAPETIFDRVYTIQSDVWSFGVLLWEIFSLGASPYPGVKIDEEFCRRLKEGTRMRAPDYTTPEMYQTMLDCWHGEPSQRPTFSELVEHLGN

- fraction unbound (Protein binding): 0.01
- IC50 (human VEGFR2 kinase): 2.3 nM
- pharmacokinetic profile (Pharmacokinetics in dog): good pharmacokinetic profile
- IC50 (c-Fms; mean±s.e.): 530 ± 330 nM
- Fold selectivity vs VEGFR-2, c-Fms (c-Fms; [3]): 237
- IC50 (CDK4): > 20000 nM
- Fold selectivity vs VEGFR-2, CDK4 (CDK4; [3]): >8800
- IC50 (ErbB2; mean±s.e.): 11500 ± 2740 nM
- Fold selectivity vs VEGFR-2, ErbB2 (ErbB2; [3]): 5125
- IC50 (human VEGFR kinase 1; mean±s.e.): 12 ± 2.6 nM
- Fold selectivity vs VEGFR-2, VEGFR-1 (human VEGFR kinase 1; [3]): 5.3
- IC50 (EGFR; mean±s.e.): 1360 ± 420 nM
- Fold selectivity vs VEGFR-2, EGFR (EGFR; [3]): 605
- IC50 (SRC; mean±s.e.): 350 ± 240 nM
- Fold selectivity vs VEGFR-2, SRC (SRC; [3]): 156
- IC50 (Tie2; mean±s.e.): 320 ± 40 nM
- Fold selectivity vs VEGFR-2, Tie2 (Tie2; [3]): 144
- IC50 (human VEGFR kinase 3; mean±s.e.): 2.5 ± 0.5 nM
- Fold selectivity vs VEGFR-2, VEGFR-3 (human VEGFR kinase 3; [3]): 1.1
- IC50 (Eph-B4; mean±s.e.): 460 ± 30 nM
- Fold selectivity vs VEGFR-2, Eph-B4 (Eph-B4; [3]): 204
- IC50 (CDK2): > 20000 nM
- Fold selectivity vs VEGFR-2, CDK2 (CDK2; [3]): >8800
- free Cmax (Pharmacokinetics in mice; oral 10 mg kg^−1): 60 nM
- free Cmax (Pharmacokinetics in mice; oral 30 mg kg^−1): 230 nM
- free Cmax (Pharmacokinetics in mice; oral 100 mg kg^−1): 1380 nM
- pharmacokinetic profile (Pharmacokinetics in mice; mouse): good pharmacokinetic profile
SMILES: CCS(=O)(=O)c1ccc(OC)c(Nc2nccc(N(C)c3ccc4c(C)n[nH]c4c3)n2)c1 [GW654652, N^2-[5-(ethylsulphonyl)-2-methoxyphenyl]-N^4-methyl-N^4-(3-methyl-1H-indazol-6-yl)pyrimidine-2,4-diamine]
- % Inhibition of tumour growth (HN5 xenograft; HN5, 10 mg kg^−1 oral once daily): 24%
- % Inhibition of tumour growth (HN5 xenograft; HN5, 30 mg kg^−1 oral once daily): 46%
- % Inhibition of tumour growth (HN5 xenograft; HN5, 100 mg kg^−1 oral once daily): 83%
- ED50 (HN5 xenograft; HN5, oral dose producing 50% inhibition of tumour growth): 28 ± 10 mg/kg/day
- % Inhibition of tumour growth (HT29 xenograft; HT29, 10 mg kg^−1 oral once daily): 5%
- % Inhibition of tumour growth (HT29 xenograft; HT29, 30 mg kg^−1 oral once daily): 69%
- % Inhibition of tumour growth (HT29 xenograft; HT29, 100 mg kg^−1 oral once daily): 98%
- ED50 (HT29 xenograft; HT29, oral dose producing 50% inhibition of tumour growth): 20 ± 8 mg/kg/day
- % Inhibition of tumour growth (HCT116 xenograft; HCT116, 10 mg kg^−1 oral once daily): 18%
- % Inhibition of tumour growth (HCT116 xenograft; HCT116, 30 mg kg^−1 oral once daily): 59%
- % Inhibition of tumour growth (HCT116 xenograft; HCT116, 100 mg kg^−1 oral once daily): 71%
- ED50 (HCT116 xenograft; HCT116, oral dose producing 50% inhibition of tumour growth): 21 ± 8 mg/kg/day
- IC50 [1]: 110 nM
- IC50 [2]: 1980 nM
- % Inhibition of tumour growth (A375P xenograft; 30 mg kg^−1 oral once daily): 14%
- % Inhibition of tumour growth (A375P xenograft; 100 mg kg^−1 oral once daily): 49%
- ED50 (A375P xenograft; oral dose producing 50% inhibition of tumour growth): 114 ± 54 mg/kg/day
- % Inhibition of tumour growth (PC3 xenograft; PC3, 30 mg kg^−1 oral once daily): 21%
- % Inhibition of tumour growth (PC3 xenograft; PC3, 100 mg kg^−1 oral once daily): 48%
- ED50 (PC3 xenograft; PC3, oral dose producing 50% inhibition of tumour growth): 108 ± 50 mg/kg/day
- % Inhibition of tumour growth (SW620 xenograft; SW620, 10 mg kg^−1 oral once daily): 12%
- % Inhibition of tumour growth (SW620 xenograft; SW620, 30 mg kg^−1 oral once daily): 44%
- % Inhibition of tumour growth (SW620 xenograft; SW620, 100 mg kg^−1 oral once daily): 74%
- ED50 (SW620 xenograft; SW620, oral dose producing 50% inhibition of tumour growth): 46 ± 11 mg/kg/day
